In patent publication US20190307843A1, “SINGLE DOSE METHODS FOR PREVENTING AND TREATING FUNGAL INFECTIONS” (Cidara Therapeutics, Inc., priority 2016, published 2019):
Starred links: 1 amine or outer side, 2 acyl side, 3 side chain; linkers in the order of their positions; H or OH if unused. Positions of bridges follow the written chain, without caps; N, C: chain ends. Non-standard residues stand in square brackets, D forms with d. Residues, ends and D or L forms follow the SMILES beside them. *: point of attachment. Orn(4R-OH,5R-OCH2CH2NMe3+) = C[N+](C)(C)CCO[C@@H](N[*:3])[C@H](O)C[C@H](N[*:1])C(=O)[*:2]; pTerphenylCO(4''-OnC5H11) = CCCCCOc1ccc(-c2ccc(-c3ccc(C(=O)*)cc3)cc2)cc1; hTyr(3S-OH,4S-OH) = N[C@H](C(=O)O)[C@H](O)[C@@H](O)c1ccc(O)cc1; Pro(3S-OH,4S-Me) = C[C@H]1CN[C@H](C(=O)O)[C@H]1O; Hyp = O=C(O)[C@@H]1C[C@@H](O)CN1

Experiments:
[1] = Protein binding by ultracentrifugation, human plasma; format: in vitro ADME
Protocol: Concentrations in plasma ranging from 7 to 60 μg/mL were tested and resulting samples were analyzed by LC-MS/MS.

Pneumocystis spp. = assay: Murine model of Pneumocystis pneumonia; details: in vivo
From the text: The in vitro activity of CD101 was previously evaluated as part of the SENTRY international surveillance program using CLSI broth microdilution methodology (M38-A2, M27-A3; Pfaller, et al 2017). […] These susceptibility data were then compared graphically to CD101 plasma concentrations from studies in healthy adults, adjusted for plasma protein binding. Nonclinical efficacy in a murine model of Pneumocystis pneumonia were also considered to evaluate CD101 doses for clinical investigation of antifungal prophylaxis.

candidemia = assay: Human subject with candidemia, single intravenous dose (Example 2); format: in vivo; details: single dose of 50-800 mg acetate salt of CD101, intravenous infusion
Protocol: (§1) A human subject is diagnosed with candidemia using standard diagnostic procedures. The subject receives treatment with a single dose of 50-800 mg (e.g., 75±25 mg, 100±25 mg, 150±50 mg, 200±50 mg, 250±50 mg, 300±50 mg, 350±50 mg, 400±50 mg, 450±50 mg, 500±100 mg, 600±100 mg, 700±100 mg, 800±100 mg, 900±50 mg, 1000 mg±100 mg, or 1100±100 mg) of the acetate salt of CD101 administered by intravenous infusion. No other antifungal treatment is provided to the subject within one to three weeks before or after administration of the single dose CD101 treatment.

[2] = system: Candida albicans ATCC SC5314; assay: MIC used for free drug plasma concentration over MIC, candidiasis model; format: cell-based
invasive candidiasis = assay: Human subject with invasive candidiasis, single subcutaneous dose (Example 3); format: in vivo; details: single dose of 50-1200 mg acetate salt of CD101, subcutaneous injection
Protocol: A human subject is diagnosed with invasive candidiasis using standard diagnostic procedures. The subject receives treatment with a single dose of 50-1200 mg (e.g., 75±25 mg, 100±25 mg, 150±50 mg, 200±50 mg, 250±50 mg, 300±50 mg, 350±50 mg, 400±50 mg, 450±50 mg, 500±100 mg, 600±100 mg, 700±100 mg, 800±100 mg, 900±50 mg, 1000 mg±100 mg, or 1100±100 mg) of the acetate salt of CD101 administered by subcutaneous injection. No other antifungal treatment is provided to the subject within one to three weeks before or after administration of the single dose CD101 treatment.

[3] = system: C. albicans SC-5314 biofilms; assay: Time lapse microscopy of biofilm formation; format: cell-based, Candida albicans; details: CD101 0.25 μg/ml; 0 h up to 16 h
From the text: The effective CD101 concentration obtained from the above experiments was used to monitor its effect on biofilm formation in real time using TLM, which involves capturing real-time images of a single frame at specific time intervals, allowing temporal monitoring of the interactions occurring between the drug and Candida biofilms. Captured images were combined in a time sequence, resulting in an animation depicting the sequence of events that occurred with the passage of time. Briefly, the discs with C. albicans (adhered for 90 min as above) were placed in a 35-mm-diameter glass-bottom Petri dish (MatTek Corp., Ashland, Mass.). […] Phase contrast images for this interaction were captured immediately from 0 h and followed up to 16-17 h on a Leica DMI 6000 B inverted microscope connected to a Retiga EXi Aqua camera (Q-imaging Vancouver British Columbia). To determine the structural changes in the maturing biofilm, both acquisition and analysis of a series of horizontal (xy) optical sections of the biofilm was done using Metamorph Imaging software (Molecular Devices, Downington, Pa.). Disc incubated with media alone was used as control.

aspergillosis = assay: Human subject with aspergillosis, single oral dose (Example 4); format: in vivo; details: single dose of 50 mg-1200 mg acetate salt of CD101, oral formulation
Protocol: as §1, with “aspergillosis” for “candidemia”, “50 mg-1200” for “50-800”, “in an oral formulation (e.g., in a pill, capsule, or liquid formulation).” for “by intravenous infusion.”

Candida albicans (R357) = assay: Neutropenic mouse model of azole-resistant candidiasis, kidney CFU; format: in vivo; details: CD101 3 mg/kg single IP dose, 72 hours
[4] = system: Aspergillus fumigatus (ATCC 13073); assay: Neutropenic mouse aspergillosis model, survival; format: in vivo; details: CD101 2 mg/kg IV or IP one dose; 10 days

SMILES: CCCCCOc1ccc(-c2ccc(-c3ccc(C(=O)N[C@H]4C[C@@H](O)[C@@H](OCC[N+](C)(C)C)NC(=O)[C@@H]5[C@@H](O)[C@@H](C)CN5C(=O)[C@H]([C@@H](C)O)NC(=O)[C@H]([C@H](O)[C@@H](O)c5ccc(O)cc5)NC(=O)[C@@H]5C[C@@H](O)CN5C(=O)[C@H]([C@@H](C)O)NC4=O)cc3)cc2)cc1 [CD101] ({pTerphenylCO(4''-OnC5H11)}-[Orn(4R-OH,5R-OCH2CH2NMe3+)]T[Hyp][hTyr(3S-OH,4S-OH)]T[Pro(3S-OH,4S-Me)]; lactam 1-C)
- free fraction in human vs mouse plasma [1]: ~3 ×
- percent of bound CD101, mean ([1]; human plasma): 97.4%
- human equivalent doses at which Pneumocystis pneumonia was prevented in mice (Pneumocystis spp.): < 50 mg
- candidemia infection at follow-up visit (candidemia): confirmed to be resolved
- MIC [2]: 0.03 µg/mL
- invasive candidiasis infection at follow-up visit (invasive candidiasis): confirmed to be resolved
- biofilm formation in real time [3]: only adhered cells with stunted growth, which failed to grow into mature biofilms
- aspergillosis infection at follow-up visit (aspergillosis): confirmed to be resolved
- reduction in C. albicans CFU compared with vehicle (Candida albicans (R357)): > 3 log
- survival vs vehicle [4]: significantly longer survival than vehicle
